Source: patent US6936585B2, “Corticotropin releasing factor 2 receptor agonists” (priority 2002, dated 2005)
Peptide text beside a SMILES is read from it.

Assays:
CRF1R = biological target: T1, CRF1R (Homo sapiens, UniProt P34998); test: CRF1R agonist activation (EC50 / Emax), called comparative CRF binding; format: cell-based; conditions: read-out: CRF1R Emax
T1 sequence (P34998 24-415): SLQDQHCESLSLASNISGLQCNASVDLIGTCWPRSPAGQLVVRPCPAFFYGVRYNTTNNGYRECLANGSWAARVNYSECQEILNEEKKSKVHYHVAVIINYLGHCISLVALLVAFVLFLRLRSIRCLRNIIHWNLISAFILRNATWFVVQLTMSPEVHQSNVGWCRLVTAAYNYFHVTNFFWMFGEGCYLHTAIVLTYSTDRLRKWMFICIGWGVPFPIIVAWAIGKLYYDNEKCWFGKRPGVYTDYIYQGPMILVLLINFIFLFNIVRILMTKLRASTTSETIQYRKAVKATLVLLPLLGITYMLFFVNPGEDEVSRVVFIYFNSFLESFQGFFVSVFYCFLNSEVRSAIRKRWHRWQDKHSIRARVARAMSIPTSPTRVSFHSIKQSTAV
Source text: (§1) The pharmacological activity and selectivity of the peptides of present invention can be determined using published test procedures. See, e.g, U.S. patent application Ser. No. 09/799,978 (now issued U.S. Pat. No. 6,670,140). Because CRF2R and CRF1R are homologous proteins, it is expected that a certain proportion of agonists for CRF2R will also function as agonists of CRF1R. As discussed above, activation of CRF1R induces activation of the HPA axis since increased corticosteroid production leads to skeletal muscle atrophy. In most cases in which an increase in muscle mass or function is desired, it is not desirable to activate the HPA axis.
(§2) Cell-based assays include the steps of contacting cells which express CRF1R or CRF2R with a peptide of the present invention or control and measuring activation of the CRFR by measuring the expression or activity of components of the CRFR signal transduction pathways.
(§3) For example, after contact with a peptide of the present invention, lysates of the cells can be prepared and assayed for induction of cAMP. cAMP is induced in response to Gαs activation. Because Gαs is activated by receptors other than CRFR and because a test peptide may be exerting its effect through CRFRs or by another mechanism, two control comparisons are relevant for determining whether the peptide increases levels of cAMP via activation of a CRFR. One control compares the cAMP level of cells contacted with the peptide and the cAMP level of cells contacted with a control compound (i.e., the vehicle in which the peptide is dissolved).
(§4) In one example, cAMP induction is measured with the use of DNA constructs containing the cAMP responsive element linked to any of a variety of reporter genes can be introduced into cells expressing CRFRs. Such reporter genes include, but are not limited to, chloramphenicol acetyltransferase (CAT), luciferase, glucuronide synthetase, growth hormone, fluorescent proteins (e.g., Green Fluorescent Protein), or alkaline phosphatase. Following exposure of the cells to the peptide, the level of reporter gene expression can be quantitated to determine the peptide's ability to increase cAMP levels and thus determine the peptide's ability to activate the CRFR.
(§5) In addition to using cells expressing full length CRFRs, cells can be engineered which express CRFRs containing the ligand binding domain of the receptor coupled to, or physically modified to contain, reporter elements or to interact with signaling proteins. For example, a wild type CRFR or CRFR fragment can be fused to a G-protein resulting in activation of the fused G-protein upon agonist binding to the CRFR portion of the fusion protein. […] In addition, alternative pathways for induction of the CRE reporter could be eliminated to reduce basal levels.

CRF2R = biological target: T2, CRF2R (Homo sapiens, UniProt Q13324); test: CRF2R agonist activation (EC50 / Emax), called comparative CRF binding; format: cell-based; conditions: read-out: CRF2R Emax
T2 sequence (Q13324 1-411): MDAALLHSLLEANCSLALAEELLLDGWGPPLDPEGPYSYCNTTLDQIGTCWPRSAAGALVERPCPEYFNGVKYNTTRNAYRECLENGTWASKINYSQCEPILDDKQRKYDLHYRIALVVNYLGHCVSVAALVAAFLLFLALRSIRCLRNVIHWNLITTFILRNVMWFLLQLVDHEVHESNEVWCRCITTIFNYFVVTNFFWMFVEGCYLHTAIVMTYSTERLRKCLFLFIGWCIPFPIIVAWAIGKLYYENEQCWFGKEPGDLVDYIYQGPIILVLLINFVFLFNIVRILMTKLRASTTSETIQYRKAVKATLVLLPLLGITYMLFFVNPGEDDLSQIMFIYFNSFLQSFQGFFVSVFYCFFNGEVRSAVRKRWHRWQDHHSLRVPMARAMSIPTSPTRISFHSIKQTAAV
Source text: as §1, §2, §3, §4, §5

Row | SMILES | Emax (CRF1R) | Emax (CRF2R)
1 | CC[C@H](C)[C@H](N)C(=O)N[C@H](C(=O)N[C@@H](CC(C)C)C(=O)N[C@@H](CO)C(=O)N[C@@H](CC(C)C)C(=O)N[C@@H](CC(=O)O)C(=O)N[C@H](C(=O)N1CCC[C@H]1C(=O)NCC(=O)N1CCC[C@H]1C(=O)N[C@@H](CC(C)C)C(=O)N[C@@H](CC(C)C)C(=O)N[C@@H](CCC(N)=O)C(=O)N[C@H](C(=O)N[C@@H](CC(C)C)C(=O)N[C@@H](CC(C)C)C(=O)N[C@@H](CCC(=O)O)C(=O)N[C@@H](CCC(N)=O)C(=O)N[C@H](C(=O)N[C@@H](CCCCN)C(=O)N[C@@H](CCC(N)=O)C(=O)N[C@@H](CCC(=O)O)C(=O)N[C@@H](C)C(=O)N[C@@H](C)C(=O)N[C@@H](CCCNC(=N)N)C(=O)N[C@@H](CCC(=O)O)C(=O)N[C@@H](CCC(N)=O)C(=O)N[C@@H](C)C(=O)N[C@H](C(=O)N[C@H](C(=O)N[C@@H](CC(N)=O)C(=O)N[C@@H](C)C(=O)N[C@@H](CCCNC(=N)N)C(=O)N[C@H](C(=O)N[C@@H](CC(C)C)C(=O)N[C@@H](C)C(=O)N[C@@H](CCCNC(=N)N)C(=O)N[C@H](C(N)=O)C(C)C)[C@@H](C)CC)[C@@H](C)O)[C@@H](C)O)[C@@H](C)O)[C@@H](C)CC)C(C)C)C(C)C [compound 5] (H-IVLSLDVPGPLLQILLEQTKQEAAREQATTNARILARV-NH2) | 9% | 12%
2 | CC[C@H](C)[C@H](N)C(=O)N[C@H](C(=O)N[C@@H](CC(C)C)C(=O)N[C@@H](CO)C(=O)N[C@@H](CC(C)C)C(=O)N[C@@H](CC(=O)O)C(=O)N[C@H](C(=O)N1CCC[C@H]1C(=O)N[C@H](C(=O)NCC(=O)N[C@@H](CC(C)C)C(=O)N[C@@H](CC(C)C)C(=O)N[C@@H](CCC(N)=O)C(=O)N[C@H](C(=O)N[C@@H](CC(C)C)C(=O)N[C@@H](CC(C)C)C(=O)N[C@@H](CCC(=O)O)C(=O)N[C@@H](CCC(N)=O)C(=O)N[C@@H](C)C(=O)N[C@@H](CCCNC(=N)N)C(=O)N[C@@H](C)C(=O)N[C@@H](CCCNC(=N)N)C(=O)N[C@@H](C)C(=O)N[C@@H](C)C(=O)N[C@@H](CCCNC(=N)N)C(=O)N[C@@H](CCC(=O)O)C(=O)N[C@@H](CCC(N)=O)C(=O)N[C@@H](C)C(=O)N[C@H](C(=O)N[C@H](C(=O)N[C@@H](CCC(N)=O)C(=O)N[C@@H](C)C(=O)N[C@@H](CCCNC(=N)N)C(=O)N[C@H](C(=O)N[C@@H](CC(C)C)C(=O)N[C@@H](C)C(=O)N[C@@H](CCCNC(=N)N)C(=O)N[C@H](C(N)=O)C(C)C)[C@@H](C)CC)[C@@H](C)O)[C@@H](C)O)[C@@H](C)CC)[C@@H](C)CC)C(C)C)C(C)C [compound 9] (H-IVLSLDVPIGLLQILLEQARARAAREQATTQARILARV-NH2) | 10% | 34%
3 | CC[C@H](C)[C@H](NC(=O)[C@H](CC(=O)O)NC(=O)[C@H](CC(C)C)NC(=O)[C@H](CC(C)C)NC(=O)[C@H](CCCCN)NC(=O)[C@H](CCCNC(=N)N)NC(=O)[C@H](CC(N)=O)NC(=O)[C@H](CO)NC(=O)[C@H](Cc1c[nH]cn1)NC(=O)[C@H](C)NC(=O)[C@H](CCC(N)=O)NC(=O)[C@H](CCC(N)=O)NC(=O)[C@H](C)NC(=O)[C@H](CC(C)C)NC(=O)[C@H](CCC(N)=O)NC(=O)[C@H](CC(=O)O)NC(=O)[C@H](C)NC(=O)[C@H](CCCCN)NC(=O)[C@@H](NC(=O)[C@H](CCSC)NC(=O)[C@H](CCC(=O)O)NC(=O)[C@H](CC(C)C)NC(=O)[C@@H](NC(=O)[C@H](CCC(=O)O)NC(=O)[C@H](CCCNC(=N)N)NC(=O)[C@H](CC(C)C)NC(=O)[C@H](CC(C)C)NC(=O)[C@H](Cc1c[nH]cn1)NC(=O)[C@H](Cc1ccccc1)NC(=O)[C@@H]1CCCN1C(=O)[C@H](CC(C)C)NC(=O)[C@H](CC(=O)O)NC(=O)[C@H](CC(C)C)NC(=O)[C@H](CO)NC(=O)[C@@H](NC(=O)[C@@H]1CCCN1C(=O)[C@@H]1CCCN1C(=O)[C@H](CCC(=O)O)NC(=O)[C@H](CCC(N)=O)NC(=O)[C@@H](N)CO)[C@@H](C)CC)C(C)C)[C@@H](C)O)C(=O)N[C@@H](C)C(N)=O [compound 104] | 11.1% | 4.5%
4 | CC[C@H](C)[C@H](N)C(=O)N[C@H](C(=O)N[C@@H](CC(C)C)C(=O)N[C@@H](CO)C(=O)N[C@@H](CC(C)C)C(=O)N[C@@H](CC(=O)O)C(=O)N[C@H](C(=O)N1CCC[C@H]1C(=O)N[C@H](C(=O)NCC(=O)N[C@@H](CC(C)C)C(=O)N[C@@H](CC(C)C)C(=O)N[C@@H](CCC(N)=O)C(=O)N[C@H](C(=O)N[C@@H](CC(C)C)C(=O)N[C@@H](CC(C)C)C(=O)N[C@@H](CCC(=O)O)C(=O)N[C@@H](CCC(N)=O)C(=O)N[C@H](C(=O)N[C@@H](CCCCN)C(=O)N[C@@H](C)C(=O)N[C@@H](CC(=O)O)C(=O)N[C@@H](C)C(=O)N[C@@H](C)C(=O)N[C@@H](CCCNC(=N)N)C(=O)N[C@@H](CCC(=O)O)C(=O)N[C@@H](CCC(N)=O)C(=O)N[C@@H](C)C(=O)N[C@H](C(=O)N[C@H](C(=O)N[C@@H](CC(N)=O)C(=O)N[C@@H](C)C(=O)N[C@@H](CCCNC(=N)N)C(=O)N[C@H](C(=O)N[C@@H](CC(C)C)C(=O)N[C@@H](C)C(=O)N[C@@H](CCCNC(=N)N)C(=O)N[C@H](C(N)=O)C(C)C)[C@@H](C)CC)[C@@H](C)O)[C@@H](C)O)[C@@H](C)O)[C@@H](C)CC)[C@@H](C)CC)C(C)C)C(C)C [compound 108] (H-IVLSLDVPIGLLQILLEQTKADAAREQATTNARILARV-NH2; N-terminus assumed) | 3% | 97%
5 | CC[C@H](C)[C@H](N)C(=O)N[C@H](C(=O)N[C@@H](CC(C)C)C(=O)N[C@@H](CO)C(=O)N[C@@H](CC(C)C)C(=O)N[C@@H](CC(=O)O)C(=O)N[C@H](C(=O)N1CCC[C@H]1C(=O)N[C@H](C(=O)NCC(=O)N[C@@H](CC(C)C)C(=O)N[C@@H](CC(C)C)C(=O)N[C@@H](CCC(N)=O)C(=O)N[C@H](C(=O)N[C@@H](CC(C)C)C(=O)N[C@@H](CC(C)C)C(=O)N[C@@H](CCC(=O)O)C(=O)N[C@@H](CCC(N)=O)C(=O)N[C@@H](C)C(=O)N[C@@H](CCCCN)C(=O)N[C@@H](C)C(=O)N[C@@H](CCCNC(=N)N)C(=O)N[C@@H](C)C(=O)N[C@@H](C)C(=O)N[C@@H](CCCNC(=N)N)C(=O)N[C@@H](CCC(=O)O)C(=O)N[C@@H](CCC(N)=O)C(=O)N[C@@H](C)C(=O)N[C@H](C(=O)N[C@H](C(=O)N[C@@H](CC(N)=O)C(=O)N[C@@H](C)C(=O)N[C@@H](CCCNC(=N)N)C(=O)N[C@H](C(=O)N[C@@H](CC(C)C)C(=O)N[C@@H](C)C(=O)N[C@@H](CCCNC(=N)N)C(=O)N[C@H](C(N)=O)C(C)C)[C@@H](C)CC)[C@@H](C)O)[C@@H](C)O)[C@@H](C)CC)[C@@H](C)CC)C(C)C)C(C)C [compound 109] (H-IVLSLDVPIGLLQILLEQAKARAAREQATTNARILARV-NH2; N-terminus assumed) | 6.7% | 91.7%
